In patent US20220265694A1, “COMPOSITIONS AND METHODS FOR TREATING AN INFECTION” (CMPD LICENSING, LLC, priority 2016, published 2022):

Legend:
[1] = tested on: Serratia marcescens; experiment: Expected efficacy of antibiotic agents; conditions: expected efficacy against Serratia marcescens; Gram: neg
[2] = tested on: Klebsiella pneumoniae; experiment: Expected efficacy of antibiotic agents; conditions: expected efficacy against Klebsiella pneumoniae; Gram: neg
[3] = tested on: Streptococcus agalactiae; experiment: Expected efficacy of antibiotic agents; conditions: expected efficacy against Streptococcus agalactiae; Gram: pos
[4] = tested on: Staphylococcus epidermidis; experiment: Expected efficacy of antibiotic agents; conditions: expected efficacy against Staphylococcus epidermidis; Gram: pos
[5] = tested on: Bordetella pertussis; experiment: Expected efficacy of antibiotic agents; conditions: expected efficacy against Bordetella pertussis; Gram: neg
[6] = tested on: Morganella morganii; experiment: Expected efficacy of antibiotic agents; conditions: expected efficacy against Morganella morganii; Gram: neg
[7] = tested on: Citrobacter freundii; experiment: Expected efficacy of antibiotic agents; conditions: expected efficacy against Citrobacter freundii; Gram: neg
[8] = tested on: Neisseria meningitidis; experiment: Expected efficacy of antibiotic agents; conditions: expected efficacy against Neisseria meningitidis; Gram: neg
[9] = tested on: Brucella species; conditions: expected efficacy against Brucella species; Gram: neg
[10] = tested on: Chlamydia pneumoniae; experiment: Expected efficacy of antibiotic agents; conditions: expected efficacy against Chlamydia pneumoniae; Gram: n/a
[11] = tested on: Staphylococcus aureus (MSSA); experiment: Expected efficacy of antibiotic agents; conditions: expected efficacy against Staphylococcus aureus (MSSA); Gram: pos
[12] = tested on: Acinetobacter calcoaceticus; experiment: Expected efficacy of antibiotic agents; conditions: expected efficacy against Acinetobacter calcoaceticus; Gram: neg
[13] = tested on: Pseudomonas fluorescens; experiment: Expected efficacy of antibiotic agents; conditions: expected efficacy against Pseudomonas fluorescens; Gram: neg
[14] = tested on: Enterobacter aerogenes; experiment: Expected efficacy of antibiotic agents; conditions: expected efficacy against Enterobacter aerogenes; Gram: neg
[15] = tested on: Klebsiella (Calymmatobacterium); experiment: Expected efficacy of antibiotic agents; conditions: expected efficacy against Klebsiella (Calymmatobacterium); Gram: neg
[16] = tested on: Clostridium perfringens; conditions: expected efficacy against Clostridium perfringens; Gram: anaer
[17] = tested on: Enterobacter sakazakii; experiment: Expected efficacy of antibiotic agents; conditions: expected efficacy against Enterobacter sakazakii; Gram: neg
[18] = tested on: Providencia stuartii; experiment: Expected efficacy of antibiotic agents; conditions: expected efficacy against Providencia stuartii; Gram: neg
[19] = tested on: Moraxella catarrhalis; experiment: Expected efficacy of antibiotic agents; conditions: expected efficacy against Moraxella catarrhalis; Gram: neg
[20] = tested on: Providencia rettgeri; experiment: Expected efficacy of antibiotic agents; conditions: expected efficacy against Providencia rettgeri; Gram: neg
[21] = tested on: Clostridium difficile; experiment: Expected efficacy of antibiotic agents; conditions: expected efficacy against Clostridium difficile; Gram: anaer
[22] = tested on: Campylobacter jejuni; experiment: Expected efficacy of antibiotic agents; conditions: expected efficacy against Campylobacter jejuni; Gram: neg
[23] = tested on: Methicillin resistant staph aureus (MRSA); experiment: Expected efficacy of antibiotic agents; conditions: expected efficacy against Methicillin resistant staph aureus (MRSA); Gram: pos
[24] = tested on: Streptococcus pyogenes; experiment: Expected efficacy of antibiotic agents; conditions: expected efficacy against Streptococcus pyogenes; Gram: pos
[25] = tested on: Pseudomonas aeruginosa; experiment: Expected efficacy of antibiotic agents; conditions: expected efficacy against Pseudomonas aeruginosa; Gram: neg
[26] = tested on: Corynebacterium jeikeium; experiment: Expected efficacy of antibiotic agents; conditions: expected efficacy against Corynebacterium jeikeium; Gram: pos
[27] = tested on: Francisella tularensis; conditions: expected efficacy against Francisella tularensis; Gram: neg
[28] = tested on: Bartonella bacilliformis; experiment: Expected efficacy of antibiotic agents; conditions: expected efficacy against Bartonella bacilliformis; Gram: neg
[29] = tested on: Mycoplasma pneumoniae; experiment: Expected efficacy of antibiotic agents; conditions: expected efficacy against Mycoplasma pneumoniae; Gram: n/a
[30] = tested on: Proteus mirabilis; experiment: Expected efficacy of antibiotic agents; conditions: expected efficacy against Proteus mirabilis; Gram: neg
[31] = tested on: Enterococcus faecium; experiment: Expected efficacy of antibiotic agents; conditions: expected efficacy against Enterococcus faecium; Gram: pos
[32] = tested on: Escherichia coli; experiment: Expected efficacy of antibiotic agents; conditions: expected efficacy against Escherichia coli; Gram: neg
[33] = tested on: Acinetobacter lwoffii; experiment: Expected efficacy of antibiotic agents; conditions: expected efficacy against Acinetobacter lwoffii; Gram: neg
[34] = tested on: Chlamydia trachomatis; experiment: Expected efficacy of antibiotic agents; conditions: expected efficacy against Chlamydia trachomatis; Gram: n/a
[35] = tested on: Acinetobacter baumannii; experiment: Expected efficacy of antibiotic agents; conditions: expected efficacy against Acinetobacter baumannii; Gram: neg
[36] = tested on: Streptococcus pneumoniae; experiment: Expected efficacy of antibiotic agents; conditions: expected efficacy against Streptococcus pneumoniae; Gram: pos
[37] = tested on: Chlamydia psittaci; conditions: expected efficacy against Chlamydia psittaci; Gram: n/a
[38] = tested on: Vibrio cholerae; experiment: Expected efficacy of antibiotic agents; conditions: expected efficacy against Vibrio cholerae; Gram: neg
[39] = tested on: Enterobacter cloacae; experiment: Expected efficacy of antibiotic agents; conditions: expected efficacy against Enterobacter cloacae; Gram: neg
[40] = tested on: Enterococcus faecalis; experiment: Expected efficacy of antibiotic agents; conditions: expected efficacy against Enterococcus faecalis; Gram: pos
[41] = tested on: Rickettsiae; conditions: expected efficacy against Rickettsiae; Gram: neg
[42] = tested on: Proteus vulgaris; experiment: Expected efficacy of antibiotic agents; conditions: expected efficacy against Proteus vulgaris; Gram: neg
[43] = tested on: Haemophilus influenzae; experiment: Expected efficacy of antibiotic agents; conditions: expected efficacy against Haemophilus influenzae; Gram: neg
[44] = tested on: Klebsiella oxytoca; experiment: Expected efficacy of antibiotic agents; conditions: expected efficacy against Klebsiella oxytoca; Gram: neg
[45] = tested on: Legionella pneumophila; conditions: expected efficacy against Legionella pneumophila; Gram: neg
[46] = tested on: Bacteroides fragilis; experiment: Expected efficacy of antibiotic agents; conditions: expected efficacy against Bacteroides fragilis; Gram: anaer
[47] = tested on: Citrobacter diversus; experiment: Expected efficacy of antibiotic agents; conditions: expected efficacy against Citrobacter diversus; Gram: neg
[48] = tested on: Shigella boydii; experiment: Expected efficacy of antibiotic agents; conditions: expected efficacy against Shigella boydii; Gram: neg
[49] = tested on: Corynebacterium urealyticum; experiment: Expected efficacy of antibiotic agents; conditions: expected efficacy against Corynebacterium urealyticum; Gram: pos
[50] = tested on: Yersinia pestis; conditions: expected efficacy against Yersinia pestis; Gram: neg
[51] = tested on: Neisseria gonorrhoeae; experiment: Expected efficacy of antibiotic agents; conditions: expected efficacy against Neisseria gonorrhoeae; Gram: neg
[52] = tested on: Shigella flexneri; experiment: Expected efficacy of antibiotic agents; conditions: expected efficacy against Shigella flexneri; Gram: neg
[53] = tested on: Shigella sonnei; experiment: Expected efficacy of antibiotic agents; conditions: expected efficacy against Shigella sonnei; Gram: neg
[54] = tested on: Shigella dysenteriae; experiment: Expected efficacy of antibiotic agents; conditions: expected efficacy against Shigella dysenteriae; Gram: neg
[55] = tested on: Haemophilus ducreyi; experiment: Expected efficacy of antibiotic agents; conditions: expected efficacy against Haemophilus ducreyi; Gram: neg
[56] = tested on: Salmonella typhi; experiment: Expected efficacy of antibiotic agents; conditions: expected efficacy against Salmonella typhi; Gram: neg
[57] = tested on: Haemophilus parainfluenzae; experiment: Expected efficacy of antibiotic agents; conditions: expected efficacy against Haemophilus parainfluenzae; Gram: neg
[58] = tested on: Candida species; experiment: Expected efficacy of antifungal agents; conditions: expected efficacy against Candida species

CC[C@H]1OC(=O)[C@H](C)[C@@H](O[C@H]2C[C@@](C)(OC)[C@@H](O)[C@H](C)O2)[C@H](C)[C@@H](O[C@@H]2O[C@H](C)C[C@H](N(C)C)[C@H]2O)[C@](C)(O)C[C@@H](C)CN(C)[C@H](C)[C@@H](O)[C@]1(C)O [Azithromycin]
Efficacy [1]: no | Efficacy [2]: no | Efficacy [3]: yes | Efficacy [4]: yes | Efficacy [5]: yes | Efficacy [6]: no | Efficacy [7]: no | Efficacy [8]: yes | Efficacy [9]: no | Efficacy [10]: yes | Efficacy [11]: yes | Efficacy [12]: no | Efficacy [13]: no | Efficacy [14]: no | Efficacy [15]: no | Efficacy [16]: no | Efficacy [17]: no | Efficacy [18]: no | Efficacy [19]: yes | Efficacy [20]: no | Efficacy [21]: no | Efficacy [22]: yes | Efficacy [23]: no | Efficacy [24]: yes | Efficacy [25]: no | Efficacy [26]: no | Efficacy [27]: no | Efficacy [28]: yes | Efficacy [29]: yes | Efficacy [30]: no | Efficacy [31]: no | Efficacy [32]: no | Efficacy [33]: no | Efficacy [34]: yes | Efficacy [35]: no | Efficacy [36]: yes | Efficacy [37]: yes | Efficacy [38]: yes | Efficacy [39]: no | Efficacy [40]: no | Efficacy [41]: yes | Efficacy [42]: no | Efficacy [43]: yes | Efficacy [44]: no | Efficacy [45]: yes | Efficacy [46]: no | Efficacy [47]: no

C/C(=C\C(=O)OCCCCCCCCC(=O)O)C[C@@H]1OC[C@H](C[C@@H]2O[C@H]2[C@@H](C)[C@H](C)O)[C@@H](O)[C@H]1O [Bactroban]
Efficacy [48]: no | Efficacy [1]: no | Efficacy [2]: no | Efficacy [5]: no | Efficacy [6]: no | Efficacy [7]: no | Efficacy [8]: no | Efficacy [9]: no | Efficacy [11]: yes | Efficacy [12]: no | Efficacy [13]: no | Efficacy [14]: no | Efficacy [15]: no | Efficacy [16]: no | Efficacy [49]: no | Efficacy [17]: no | Efficacy [18]: no | Efficacy [19]: no | Efficacy [20]: no | Efficacy [50]: no | Efficacy [22]: no | Efficacy [23]: yes | Efficacy [24]: yes | Efficacy [51]: no | Efficacy [25]: no | Efficacy [26]: no | Efficacy [52]: no | Efficacy [27]: no | Efficacy [28]: no | Efficacy [30]: no | Efficacy [32]: no | Efficacy [33]: no | Efficacy [35]: no | Efficacy [53]: no | Efficacy [54]: no | Efficacy [38]: no | Efficacy [39]: no | Efficacy [41]: no | Efficacy [55]: no | Efficacy [56]: no | Efficacy [42]: no | Efficacy [43]: no | Efficacy [44]: no | Efficacy [45]: no | Efficacy [47]: no

O=C(O)c1cn(C2CC2)c2cc(N3CCNCC3)c(F)cc2c1=O [Ciprofloxacin]
Efficacy [48]: yes | Efficacy [1]: yes | Efficacy [2]: yes | Efficacy [4]: yes | Efficacy [6]: yes | Efficacy [7]: yes | Efficacy [8]: yes | Efficacy [10]: yes | Efficacy [13]: yes | Efficacy [14]: yes | Efficacy [18]: yes | Efficacy [19]: yes | Efficacy [20]: yes | Efficacy [50]: yes | Efficacy [22]: yes | Efficacy [23]: no | Efficacy [51]: yes | Efficacy [25]: yes | Efficacy [26]: no | Efficacy [52]: yes | Efficacy [27]: yes | Efficacy [28]: yes | Efficacy [30]: yes | Efficacy [31]: no | Efficacy [32]: yes | Efficacy [57]: yes | Efficacy [53]: yes | Efficacy [54]: yes | Efficacy [38]: yes | Efficacy [41]: yes | Efficacy [56]: yes | Efficacy [42]: yes | Efficacy [43]: yes | Efficacy [44]: yes | Efficacy [45]: yes | Efficacy [46]: no | Efficacy [47]: yes

C[C@@H]1[C@H](O)[C@@H](C)/C=C/C=C/CC/C=C/C=C/C=C/C=C/C(O[C@H]2O[C@H](C)[C@@H](O)[C@H](N)[C@@H]2O)CC2O[C@](O)(CC(O)C(O)CCC(O)CC(O)CC(O)CC(=O)O[C@H]1C)CC(O)C2C(=O)O (stereo partly shown) [Nystatin]
Efficacy [58]: yes
